Source: publication PMC10597491 (PLOS ONE, 2023)
Bridge positions count the residues as written; N and C are the ends. Ends that are not written are not given here.

Assays:
[1] = Plasma stability in vitro, cynomolgus plasma; format: in vitro ADME; set-up: dose or concentration left out as unconfirmed; conditions: cynomolgus monkey, 37°C, incubated in duplicate, intact peptide by LC/MS/MS, read-out: t1/2 in cynomolgus plasma (converted)
Description: Affinity maturation of these initial families produced ligands with improved affinities; and combinations of these ligands (one each for IL-7Rα and γc) were joined into heterodimers in a variety of orientations (i.e., joined by N-termini, C-termini, or N-to-C termini), with several connection chemistries, for testing as IL-7R agonists in cell-based assays. The lead peptide agonist for detailed characterization, as described here, is a fusion of peptides MDK1248 and MDK1188, joined with a short intervening linker to form the single-chain peptide MDK1472. The peptides were analyzed for sequence similarity to IL-7, and none was found.
Supplementary file pone.0286834.s001.pptx: S1 Fig Plasma stability of MDK 1472 in vitro. […] MDK1472 or control peptide YGGFL incubated in duplicate in human or cynomolgus plasma at 37°C. At indicated time points, compounds were isolated from the plasma and the quantity of intact peptides measured by LC/MS/MS (Study performed by Quintara Discovery, Hayward, CA). (PPTX) Click here for additional data file.

[2] = biological target: T1, IL-2/15Rβγc receptor (Homo sapiens, UniProt P31785); assay: IL-15-induced STAT activation in TF-1 cells expressing IL-2/15Rβ; format: cell-based; conditions: IL-15 at ~EC75; up to 10 μM MDK1472 or 5 μM MDK-703
T1 construct: pcDNA3.1 expression vector encoding full-length IL-2Rβ, IL-7Rα, IL-9Rα, or IL-21Rα; TF-1 cells naturally express γc and IL-4Rα; expressed in transfected cells
T1 sequence (P31785 23-369): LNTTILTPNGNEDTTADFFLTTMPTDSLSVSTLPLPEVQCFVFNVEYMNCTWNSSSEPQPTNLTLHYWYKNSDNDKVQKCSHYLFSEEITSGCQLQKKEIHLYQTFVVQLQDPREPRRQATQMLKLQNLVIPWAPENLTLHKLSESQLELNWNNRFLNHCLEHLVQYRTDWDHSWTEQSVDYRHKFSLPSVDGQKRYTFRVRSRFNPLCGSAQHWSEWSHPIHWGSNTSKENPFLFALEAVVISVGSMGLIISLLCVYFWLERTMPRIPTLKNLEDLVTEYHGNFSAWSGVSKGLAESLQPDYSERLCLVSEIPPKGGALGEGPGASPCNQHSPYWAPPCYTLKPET
Method: There is no detectable effect of the novel agonists on the activation of any of the other receptors of the γc family.
Cells were deprived of growth factors by overnight incubation at 5×10^5 cells/mL in starvation medium (RPMI 1640 + 4.5 g/L glucose + 0.2% FBS + 2 mM L-glutamine + 1 mM NaPyr + 10 mM HEPES + 0.5x penicillin-streptomycin with no cytokine supplement) in T75 flasks. For assays, cells were plated in 96-well V-bottom plates at 2×10^5 cells/well. Three-fold serial dilutions in starvation medium of the test compounds or cytokine were added to the cells and incubated for 30 min at 37°C. Following incubation, cell extracts were prepared by adding a mixture of 10x Cell Lysis Buffer (Cell Signaling Technology Cat# 9803) and 100x HALT Phosphatase and Protease Inhibitor Cocktail (Thermo Fisher Cat# 78442) directly to the wells. The plates were agitated at 25°C for 5 min to prepare cell extracts for immediate use or to be stored at -80°C until assay. […]
TF-1-derived lines separately expressing each gamma common family private receptor were starved overnight at 5x10^5 cells/mL. The following day, the cells were counted and plated at 2x10^6 cells/well in 96-well plates. […] Cell extracts were prepared and analyzed for pSTAT3, pSTAT5, or pSTAT6 accumulation with Pathscan pSTAT ELISA kits as described above.

[3] = system: rested human CD8+ T-cells; conditions: IL-7-treated CD8+ cells, over 6 hours at 37°C; cited from earlier work
Description: Internalization of the ternary signaling complex also depletes the local ...

Row | Substance | half-life [1] | inhibition of IL-15 activation [2] | disappearance of surface IL-7Rα [3]
1 | Ac-GWGIPWCTLDPGSLQCAWLGKHGGGGSGGVVCQDWEGVELCWQGG (disulfide 7-16, 32-41) [MDK1472] | 104 h | neither MDK1472 nor MDK-703 exhibit inhibition | 
2 | IL-7: human IL-7 cytokine (Peprotech) |  |  | ~ 80%
